What all share (assay type): cell-based, mouse
For assay [1], the system named is Ucp1. In words: Gene expression by qPCR in primary brown adipocytes. The note with it: for expression of markers of brown adipocyte identity, mitochondrial function and fatty acid oxidation genes / endogenous Ucp1 expression: 10 μM; for endogenous Ucp1 expression: primary mouse brown adipocytes. Here is the method: (§1) Primary brown adipocytes were isolated according to known methods. An established mouse brown adipocyte cell line was obtained from Dr. Bruce Spiegelman (Dana-Farber Cancer Institute, Boston, USA). To differentiate primary and immortalized brown adipocytes, cells were grown until confluency in DMEM containing 10% FBS, 25 mM glucose 1 mM pyruvate, 2 mM glutamine, 20 nM insulin, 1 nM T3, and antibiotics. Once confluent (day 0), differentiation was induced by supplementing the medium with 0.5 mM IBMX, 0.5 μM dexamethasone, and 0.125 mM indomethacin, for 2 days. Differentiation was continued in the original medium (without IBMX, dexamethasone and indomethacin) for 7-10 days.
(§2) RNA levels were measured by qPCR according to known methods. Briefly, RNA was extracted with TRIzol (Invitrogen) and reverse transcribed with iScript (Bio-Rad). Real-time PCR analysis was performed with a CFX Connect (Bio-Rad).
(§3) Mouse RNA levels were measured by qPCR according to known methods. Data were normalized to B2m and Tbp reference genes. Human RNA was extracted using an RNA Mini Plus kit (Zymo) and gene expression determined by Taqman assay. The 1-step qPCR was run on a QuantStudio 12K Flex Real Time PCR System (ThermoFisher) using the following protocol: 50° C. for 5 minutes, 95° C. for 20 seconds, 40 cycles of 95° C. for 15 seconds and 60° C. for 60 seconds. Data were normalized to PPIA and PSMB2 reference genes. For global gene expression analysis, RNA isolated from brown adipocytes treated with compounds as indicated (four biological replicates) was hybridized to Illumina mouse Ref 8 V2.0 bead chips at the University of California, Los Angeles Neuroscience Genomics Core as previously described. Data were processed with GenomeStudio V2011.1 using the quantile normalization, background subtraction, and a present call of P<0.05.
In general terms: In qPCR the cycle at which signal appears reflects the starting amount.

In a further assay the test system is PKA. The assay can be described thus: PKA activity ELISA, brown adipocytes treated overnight. The note with it: immortalized brown adipocytes, 10 μM. Here is the method: PKA kinase activity was measured with an ELISA that utilized a synthetic peptide as substrate for PKA and a polyclonal antibody that recognizes the phosphorylated form of the substrate (ab139435, Abcam). PKA activity was measured in lysates from cultured brown adipocytes, mouse BAT, or liver. Cells and tissues were lysed in 20 mM MOPS, 5 mM EGTA, 2 mM EDTA, and 0.1% Triton X-100 supplemented with protease and phosphatase inhibitor as described above. Protein concentration was determined by Bradford assay and 10 μg of cells, 0.25 μg of BAT extract, or 0.5 μg of liver extract were assessed for PKA activation according to the manufacturer's instruction, with minor changes. Briefly, vehicle or Z160 was incubated with brown adipocyte cells overnight or with protein lysates for 30 min, followed by one wash before the primary antibody, 60 min incubation with the primary antibody, 30 min incubation with the secondary antibody, and by 10 min washing. Absorbance was measured after the substrate was added for 20-60 min, depending the intensity of the signal.

Assay [2] concerns Ucp1. In words: Gene expression by qPCR in immortalized brown adipocytes. How it is done: as §1
TScreening was conducted at the UCLA Molecular Screening Shared Resource using automated instruments Immortalized brown adipocytes were differentiated in T225 flasks and plated in Matrix 384-well plates (26,000 cells per well) with white flat bottom (ThermoScientific) using trypsin and collagenase type II (Sigma C6885). The small molecule libraries screened were a BioMol library (204 compounds), an FDA-approved drug library (1120 compounds), a Microsource spectrum collection (2000 compounds), and a druggable compound set (8000 compounds). Molecules were delivered at 10 μM final concentration in DMSO. The screen was performed in duplicate on different days. After 18 h, luciferase activity was measured with Bright-Glo luciferase assay system and an LJL instrument. Data were normalized to the basal response (100% activity) in the presence of DMSO. Following the primary screen, 92 molecules were selected for validation and used to treat brown adipocyte cells plated in a 96-well plate overnight. RNA was extracted with an SV 96 Total RNA Isolation System (Promega). Compounds used for follow-up studies were identified using search tools available from Molport (molport.com), and ordered from the same company.
as §2, §3

In assay [3] the test system is immortalized brown adipocytes. In words: Cellular respiration (Seahorse) in immortalized brown adipocytes. The note with it: 10 μM. Here is the method: Cellular respiration was measured using a Seahorse XF24 or XF96 analyzer (Agilent) following known protocols Immortalized brown adipocytes were differentiated in 6-well plates and replated in the Seahorse XF24 plates at a density of 50,000 cells per well using trypsin and collagenase type II. Cells were treated with vehicle (DMSO) or compounds for 18-24 h. Oxygen consumption rates were obtained before and after the sequential injection of 0.75 μM oligomycin, 0.5 μM FCCP, and 0.75 μM rotenone/myxothiazol. Results were normalized to total protein. For human white adipocytes, cells were cultured as described above and differentiated in XF96 microplates. DMSO or Z160 (10 μM) was added at day 17 and for 4 days. Oxygen consumption rates were measured before and after the sequential injection of 1 μM oligomycin, 1 μM FCCP, and 0.5 μM rotenone/antimycin A. For these cells, results were normalized to cell count determined by nuclei fluorescent staining with Hoescht staining imaged on Cytation 5 Imaging Reader and analysis with Gen5 software (BioTek). For both mouse and human cell lines, mitochondrial respiration was calculated by subtracting the non-mitochondrial respiration present after the last injection. Uncoupled respiration corresponds to the respiration difference between oligomycin and the last injections. Maximal respiration was determined after FCCP injection.

[4] abbreviates: immortalized brown adipocytes, 10 μM.

We go through two compounds from patent US12661355B2, “Compounds and methods for inducing UCP1 expression” (The Regents of the University of California, priority 2020, dated 2026).

Consider `O=C(CSc1nc2ccccc2c(=O)[nH]1)Nc1ccc2c(c1)OCCO2` [AST070, N-(2,3-dihydro-1,4-benzodioxin-6-yl)-2-[(4-oxo-3,4-dihydroquinazolin-2-yl)sulfanyl]acetamide], for which the “expression of markers of brown adipocyte identity, mitochondrial function and fatty acid oxidation genes” value with Ucp1 [1] (primary brown adipocytes) was “promoted expression”. For the same compound, in the assay with Ucp1 [1], the “endogenous Ucp1 expression” value is listed as 29 fold. Besides, the PKA activity entry in the assay with PKA is on record as “significantly increased”. Also, the Ucp1 expression induction result in the assay with Ucp1 [2] (1 μM compared with 10 μM) is “lower induction”. For the same compound, in the assay on Ucp1 [2] (10 μM), the “duration of effect on Ucp1 expression” value was “at least 24 h” and the “earliest time at which effect on Ucp1 expression was observed” value is reported as 5 h. Besides, the “expression of markers of brown adipocyte identity, mitochondrial function and fatty acid oxidation genes” value with Ucp1 [2] (setting [4]) was “promoted expression”. Further, the “concentration of optimal Ucp1 expression induction” value with Ucp1 [2] (titration, overnight treatment) is 10 µM. In addition, in assay [3], the maximal respiration entry was “significantly elevated”, the mitochondrial respiration result was “increased” and the uncoupled respiration result was “increased”.

As for `COc1ccc(NC(=O)CSc2nc3ccccc3c(=O)[nH]2)c(OC)c1` [Z160], the “expression of markers of brown adipocyte identity, mitochondrial function and fatty acid oxidation genes” value in the assay with Ucp1 [1] (primary brown adipocytes) is “promoted expression”. In the assay on Ucp1 [1] (primary brown adipocytes, 10 μM overnight), the “expression of lipolytic enzymes (Atgl, Hsl) and FGF21 at the mRNA level” value is listed as “increased expression”. Also, in the assay with Ucp1 [1], the “endogenous Ucp1 expression” value turned out to be 62 fold. For the same compound, the PKA activity entry with PKA is recorded as “significantly increased”. Further, the “potency on Ucp1 induction compared with AST070” value in the assay with Ucp1 [2] (10 μM) is given as “greater potency than AST070”. The “expression of markers of brown adipocyte identity, mitochondrial function and fatty acid oxidation genes” value in the assay on Ucp1 [2] (setting [4]) is on record as “promoted expression”. The “expression of lipolytic enzymes (Atgl, Hsl) and FGF21 at the mRNA level” value with Ucp1 [2] (immortalized brown adipocytes, 10 μM overnight) was “increased expression”. For the same compound, in assay [3], the maximal respiration entry is recorded as “showed the same trend”, the mitochondrial respiration entry was “increased” and the uncoupled respiration entry is listed as “increased”.
